Data reported in publication PMC11249646, “Small-Molecule Disruptors of the Interaction between Calcium- and Integrin-Binding Protein 1 and Integrin αIIbβ3 as Novel Antiplatelet Agents” (ACS Pharmacology & Translational Science, 2024).
Read-outs that look alike come from different tables or passages of the source.

Target: T1, CIB1 and αIIb interaction (CIB1-GST : F-αIIb peptide) (Homo sapiens, UniProt Q99828)
T1 construct: made in house; host or cells: BL-21 plus RIL cells (E. coli)
T1 sequence (Q99828 1-191): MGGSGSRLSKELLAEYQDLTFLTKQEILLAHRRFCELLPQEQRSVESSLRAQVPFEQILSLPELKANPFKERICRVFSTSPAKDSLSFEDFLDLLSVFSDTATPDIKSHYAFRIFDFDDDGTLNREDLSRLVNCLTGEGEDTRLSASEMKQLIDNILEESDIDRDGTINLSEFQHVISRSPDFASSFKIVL
Assay: FP assay, 1536-well qHTS format (primary and confirmatory screen)
Assay type: binding
Settings: for Efficacy (%): negative = inhibition; for Curve Class: negative sign = inhibitory curve; for IC50: read-out: IC50

[1] = qHTS primary screen hits, Table S2
[2] = qHTS primary screen of LOPAC/NPACT libraries
[3] = qHTS FP screen hits, Table S2, one class per curve where COUNT > 1
[4] = qHTS primary screen hits, Table S2, several classes where COUNT > 1

SMILES	Efficacy (%) [1]	IC50 [1]	Efficacy (%) [2]	Curve Class [2]	IC50 [2]	also measured
CN1Cc2c(N)cccc2C(c2ccccc2)C1.O=C(O)/C=C\C(=O)O (stereo not shown) [NCGC00015727-06]	-62%	50.1 µM				Curve Class [1]: -2.2
O=C1C(SCCO)=C(SCCO)C(=O)c2ccccc21 [NCGC00015729-08]	-77%	44.7 µM				Curve Class [1]: -2.2
O=C(Nc1ccc([N+](=O)[O-])cc1Cl)c1cc(Cl)ccc1O [NCGC00015735-08]			-12%	-2.4	63.1 µM	
COC(=O)C1=C(C)NC(C)=C(C(=O)OC)C1c1ccccc1[N+](=O)[O-] [NCGC00015748-13]			-24%	-1.2	11.2 µM	
CCCCCCC/C=C\CCCCCCCCC(=O)O [NCGC00015764-04]			-27%	-2.4	31.6 µM	
O=c1onc2cnc3ccccc3n12 [NCGC00015770-05]			-21%	-2.4	56.2 µM	
CCCC(C(=O)OCCN(CC)CC)(c1ccccc1)c1ccccc1.Cl [NCGC00015799-04]			-14%	-2.4	56.2 µM	
O=C(O)C(F)(F)F.O=c1[nH]c2ccccc2n1C1CCN(CCCC(c2ccc(F)cc2)c2ccc(F)cc2)CC1 [NCGC00015802-18]	-216%	89.1 µM				Curve Class [1]: -3
C=Cc1c(C)c2cc3[nH]c(cc4nc(cc5nc(cc1[nH]2)C(C)=C5CCC(=O)O)C(CCC(=O)O)=C4C)c(C)c3C=C [NCGC00015844-10]						Efficacy (%) (qHTS FP screen hits, Table S2): -75%; Curve Class [3]: -2.2; IC50 (qHTS FP screen hits, Table S2): 42.2 µM
O.O.O=c1c(O)c(-c2ccc(O)c(O)c2)oc2cc(O)cc(O)c12 [NCGC00015870-27]	-30%					
Cc1nc2sccn2c(=O)c1CCN1CCC(=C(c2ccc(F)cc2)c2ccc(F)cc2)CC1 [NCGC00015877-09]			-22%	-2.2	56.2 µM	
COC(=O)C1C(O)CCC2CN3CCc4c([nH]c5ccccc45)C3CC21 (stereo not shown) [NCGC00015878-08]			-68%	-2.2		
O=C(c1cc(O)c(O)c([N+](=O)[O-])c1)c1ccccc1F [NCGC00015881-04]			-35%	-2.2	39.8 µM	
COc1ccccc1N1CCNCC1.Cl [NCGC00015906-04]	-80%	79.4 µM				Curve Class [1]: -3
O=C(O)c1ccccc1Nc1cccc(OCc2ccc3ccccc3n2)c1 [NCGC00015965-05]	-42%	50.1 µM				Curve Class [1]: -2.2
O=C1CCC(N2C(=O)c3ccccc3C2=O)C(=O)N1 (stereo not shown) [NCGC00015989-17]	-28%	50.1 µM				Curve Class [4]: -2.4
CCN(CC)C(=S)SSC(=S)N(CC)CC [NCGC00016000-10]	-67%	35.8 µM				
C/C(=C\c1ccc(C(=O)O)cc1)c1ccc2c(c1)C(C)(C)CCC2(C)C [NCGC00016015-10]			-10%	-1.4	39.8 µM	
Cn1cnc2c1c(=O)[nH]c(=O)n2C [NCGC00016023-18]	-74%	89.1 µM				Curve Class [4]: -3
N#C/C(=C\c1ccc(O)c(O)c1)C(=O)NCCCNC(=O)/C(C#N)=C/c1ccc(O)c(O)c1 [NCGC00016027-04]			-24%	-1.2		
N#C/C(=C\c1ccc(O)c(O)c1)C(=O)NCCc1ccccc1 [NCGC00016029-05]			-15%	-1.2	7.9 µM	
COC[C@H]1OC(=O)c2coc3c2[C@@]1(C)C1=C(C3=O)C2CCC(=O)[C@@]2(C)C[C@H]1OC(C)=O (stereo partly shown) [NCGC00016094-12]						Efficacy (%) (qHTS FP screen hits, Table S2): -33%; Curve Class [3]: -2.2; IC50 (qHTS FP screen hits, Table S2): 29.3 µM
CCCOc1ccccc1-c1nc(=O)c2nn[nH]c2[nH]1 [NCGC00016105-05]			-22%	-1.4	14.1 µM	
CC(C)N(CCC(=O)c1ccc2ccccc2c1)Cc1ccccc1.Cl [NCGC00016107-09]			-65%	-1.2	28.2 µM	
COc1ccc(NS(=O)(=O)c2ccc(N)cc2)nn1 [NCGC00016324-09]	-139%	39.8 µM				Curve Class [1]: -3
Oc1c(I)cc(Cl)c2cccnc12 [NCGC00016391-13]	-32%	56.2 µM				Curve Class [4]: -2.4

SMILES	Efficacy (%) [1]	IC50 [1]	Efficacy (%) [2]	Curve Class [2]	IC50 [2]	also measured
CC(=O)O.Cc1cc2c(C(C)C)c(O)c(O)c(C=O)c2c(O)c1-c1c(C)cc2c(C(C)C)c(O)c(O)c(C=O)c2c1O [NCGC00016423-14]						Efficacy (%) (qHTS FP screen hits, Table S2): -64%; IC50 (qHTS FP screen hits, Table S2): 29.4 µM
O=C(CCCN1CCC(n2c(=O)[nH]c3ccccc32)CC1)c1ccc(F)cc1 [NCGC00016602-04]	-58%	50.1 µM				Curve Class [1]: -2.4
COc1ccc2c(c1)C(=O)N(CCc1ccc(S(=O)(=O)NC(=O)NC3CCCCC3)cc1)C(=O)C2(C)C [NCGC00016819-06]			-31%	-2.4	44.7 µM	
Nc1cc(-c2ccncc2)c[nH]c1=O [NCGC00016896-06]	-48%	50.1 µM				Curve Class [4]: -2.2
CCC(C)(C)C(=O)O[C@H]1C[C@@H](C)C=C2C=C[C@H](C)[C@H](CC[C@@H]3C[C@@H](O)CC(=O)O3)[C@H]21 [NCGC00017324-07]	-17%					Curve Class [4]: -2.4
CCCN1C[C@H](CSC)C[C@@H]2c3cccc4[nH]cc(c34)C[C@H]21 [NCGC00017366-05]			-29%	-2.2	50.1 µM	
Fc1ccc(C(c2ccc(F)cc2)N2CCN(C/C=C/c3ccccc3)CC2)cc1 [NCGC00018102-06]	-167%	19.2 µM				Curve Class [1]: -2.1
Cl.Cl.Nc1ccc(/N=N/c2ccccc2)c(N)n1 [NCGC00018130-09]	-22%	79.4 µM				Curve Class [1]: -2.4
COc1ccc(/C=C/C(=O)Nc2ccccc2C(=O)O)cc1OC [NCGC00018185-09]	-29%	39.8 µM				Curve Class [4]: -2.2
CC1=NN(c2ccccc2)C(=O)C1 [NCGC00018218-10]	-46%	50.1 µM				Curve Class [4]: -2.2
Cc1nnc(SCC2=C(C(=O)O)N3C(=O)[C@@H](NC(=O)Cn4cnnn4)[C@H]3SC2)s1 [NCGC00022653-06]			-21%			
CO[C@@]1(NC(=O)CSCC#N)C(=O)N2C(C(=O)[O-])=C(CSc3nnnn3C)CS[C@@H]21.[Na+] [NCGC00023016-07]	-29%	50.1 µM				Curve Class [4]: -2.4
Cc1ccc(Cl)c(Nc2ccccc2C(=O)O)c1Cl [NCGC00023217-06]	-57%	44.7 µM				Curve Class [1]: -2.2
CC[C@@H](CO)NC(=O)[C@@H]1C=C2c3cccc4c3c(cn4C)C[C@H]2N(C)C1 [NCGC00024027-09]						Efficacy (%) (qHTS FP screen hits, Table S2): -89%; Curve Class [3]: -2.2; IC50 (qHTS FP screen hits, Table S2): 44.7 µM
COc1cccc2c1C(=O)c1c(O)c3c(c(O)c1C2=O)C[C@@](O)(C(C)=O)C[C@@H]3O[C@H]1C[C@H](N)[C@H](O)[C@H](C)O1 [NCGC00024246-15]	-61%	15.2 µM				
CNC[C@H](O)c1cccc(O)c1 [NCGC00024257-06]	-15%	5.6 µM				Curve Class [4]: -1.2
CS(=O)(=O)O.CSc1ccc2c(c1)C(N1CCN(C)CC1)Cc1ccccc1S2 (stereo not shown) [NCGC00024665-06]			-28%	-2.4	56.2 µM	
C[C@](N)(Cc1ccc(O)c(O)c1)C(=O)O [NCGC00024667-14]	-24%	89.1 µM				Curve Class [4]: -2.4
CC(=O)N[C@@H](Cc1c[nH]c2ccccc12)C(=O)OCc1cc(C(F)(F)F)cc(C(F)(F)F)c1 [NCGC00024832-04]			-16%	-1.2	39.8 µM	
O=C(Nc1cccc(C(=O)Nc2ccc(S(=O)(=O)O)c3cc(S(=O)(=O)O)cc(S(=O)(=O)O)c23)c1)Nc1cccc(C(=O)Nc2ccc(S(=O)(=O)O)c3cc(S(=O)(=O)O)cc(S(=O)(=O)O)c23)c1 [NCGC00025069-04]			-37%	-1.4	0.316 µM	
CC(=O)c1c(O)c(C)c(O)c(Cc2c(O)c3c(c(C(=O)/C=C/c4ccccc4)c2O)OC(C)(C)C=C3)c1O [NCGC00025228-08]	-45%	28.2 µM				Curve Class [1]: -1.2
Oc1ccccc1C1Nc2cccc3cccc(c23)N1 [NCGC00026112-04]	-42%	56.2 µM				Curve Class [1]: -2.2
Cc1ccc(C)n1-c1cccc(C(=O)O)c1.O=C(O)C(F)(F)F [NCGC00060597-04]						Efficacy (%) (qHTS FP screen hits, Table S2): -32%; IC50 (qHTS FP screen hits, Table S2): 32.3 µM
Cc1cc(N2CCN(c3ccccc3)CC2)nc(-n2nc(C)cc2C)n1.O=C(O)C(F)(F)F [NCGC00067399-02]	-30%	56.2 µM				Curve Class [1]: -2.4
O=S1(=O)N=C(Oc2ccccc2)c2ccccc21 [NCGC00079022-02]	-23%	79.4 µM				Curve Class [4]: -2.4
NC(=O)N/N=C/c1ccc([N+](=O)[O-])o1 [NCGC00090686-07]	-26%	112 µM				Curve Class [1]: -2.4
